From patent US20110071108A1, “Beta-Cyclodextrin Derivatives as Antibacterial Agents” (Pinnacle Pharmaceuticals, Inc., priority 2005, published 2011)

Columns and labels:
Assay in all cases: Bacterial panel testing, MIC by broth microdilution
Assay type in all cases: cell-based
Details in all cases: 20-24 hours growth
Salmonella choleraesuis = test system: Salmonella choleraesuis
How it was run: (§1)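 Bacteria are cultured briefly at 37° C, standardized to McFarland density and diluted into Mueller-Hinton or Brain Heart infusion media. Compound from a 10 μg/ml DMSO solution is serially diluted twofold in this inoculated medium, and growth inhibition is scored as clear wells after 20-24 h.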

Enterococcus faecium = test system: Enterococcus faecium
How it was run: as §1

Staphylococcus aureus = test system: Staphylococcus aureus
How it was run: as §1

Bacillus atrophaeus = test system: Bacillus atrophaeus
How it was run: as §1

Pseudomonas aeruginosa = test system: Pseudomonas aeruginosa
How it was run: as §1

Eschericia coli = test system: Eschericia coli
How it was run: as §1

OCCCNC[C@H]1O[C@@H]2O[C@H]3[C@H](O)[C@@H](O)[C@@H](O[C@H]4[C@H](O)[C@@H](O)[C@@H](O[C@H]5[C@H](O)[C@@H](O)[C@@H](O[C@H]6[C@H](O)[C@@H](O)[C@@H](O[C@H]7[C@H](O)[C@@H](O)[C@@H](O[C@H]8[C@H](O)[C@@H](O)[C@@H](O[C@H]1[C@H](O)[C@H]2O)O[C@@H]8CNCCCO)O[C@@H]7CNCCCO)O[C@@H]6CNCCCO)O[C@@H]5CNCCCO)O[C@@H]4CNCCCO)O[C@@H]3CNCCCO
>200 µg/mL: MIC SC (Salmonella choleraesuis) | MIC EF (Enterococcus faecium) | MIC SA (Staphylococcus aureus) | MIC BA (Bacillus atrophaeus) | MIC PA (Pseudomonas aeruginosa) | MIC EC (Eschericia coli)

Cc1c(NC[C@H]2O[C@@H]3O[C@H]4[C@H](O)[C@@H](O)[C@@H](O[C@H]5[C@H](O)[C@@H](O)[C@@H](O[C@H]6[C@H](O)[C@@H](O)[C@@H](O[C@H]7[C@H](O)[C@@H](O)[C@@H](O[C@H]8[C@H](O)[C@@H](O)[C@@H](O[C@H]9[C@H](O)[C@@H](O)[C@@H](O[C@H]2[C@H](O)[C@H]3O)O[C@@H]9CNc2c(C)n(C)n(-c3ccccc3)c2=O)O[C@@H]8CNc2c(C)n(C)n(-c3ccccc3)c2=O)O[C@@H]7CNc2c(C)n(C)n(-c3ccccc3)c2=O)O[C@@H]6CNc2c(C)n(C)n(-c3ccccc3)c2=O)O[C@@H]5CNc2c(C)n(C)n(-c3ccccc3)c2=O)O[C@@H]4CNc2c(C)n(C)n(-c3ccccc3)c2=O)c(=O)n(-c2ccccc2)n1C
>200 µg/mL: MIC SC (Salmonella choleraesuis) | MIC EF (Enterococcus faecium) | MIC SA (Staphylococcus aureus) | MIC BA (Bacillus atrophaeus) | MIC PA (Pseudomonas aeruginosa) | MIC EC (Eschericia coli)

OC1C2OC(CNC(=S)Nc3ccccc3)C(OC3OC(CNC(=S)Nc4ccccc4)C(OC4OC(CNC(=S)Nc5ccccc5)C(OC5OC(CNC(=S)Nc6ccccc6)C(OC6OC(CNC(=S)Nc7ccccc7)C(OC7OC(CNC(=S)Nc8ccccc8)C(OC8OC(CNC(=S)Nc9ccccc9)C(O2)C(O)C8O)C(O)C7O)C(O)C6O)C(O)C5O)C(O)C4O)C(O)C3O)C1O (stereo not drawn)
>200 µg/mL: MIC SC (Salmonella choleraesuis) | MIC EF (Enterococcus faecium) | MIC SA (Staphylococcus aureus) | MIC BA (Bacillus atrophaeus) | MIC PA (Pseudomonas aeruginosa) | MIC EC (Eschericia coli)

OC1C2OC(CNC(=S)NCc3ccccc3)C(OC3OC(CNC(=S)NCc4ccccc4)C(OC4OC(CNC(=S)NCc5ccccc5)C(OC5OC(CNC(=S)NCc6ccccc6)C(OC6OC(CNC(=S)NCc7ccccc7)C(OC7OC(CNC(=S)NCc8ccccc8)C(OC8OC(CNC(=S)NCc9ccccc9)C(O2)C(O)C8O)C(O)C7O)C(O)C6O)C(O)C5O)C(O)C4O)C(O)C3O)C1O (stereo not drawn)
>200 µg/mL: MIC SC (Salmonella choleraesuis) | MIC EF (Enterococcus faecium) | MIC SA (Staphylococcus aureus) | MIC BA (Bacillus atrophaeus) | MIC PA (Pseudomonas aeruginosa) | MIC EC (Eschericia coli)

OC[C@H]1O[C@@H]2O[C@H]3[C@H](O)[C@@H](O)[C@@H](O[C@H]4[C@H](O)[C@@H](O)[C@@H](O[C@H]5[C@H](O)[C@@H](O)[C@@H](O[C@H]6[C@H](O)[C@@H](O)[C@@H](O[C@H]7[C@H](O)[C@@H](O)[C@@H](O[C@H]8[C@H](O)[C@@H](O)[C@@H](O[C@H]1[C@H](O)[C@H]2O)O[C@@H]8CO)O[C@@H]7CO)O[C@@H]6CO)O[C@@H]5CO)O[C@@H]4CO)O[C@@H]3CO
>200 µg/mL: MIC SC (Salmonella choleraesuis) | MIC EF (Enterococcus faecium) | MIC SA (Staphylococcus aureus) | MIC BA (Bacillus atrophaeus) | MIC PA (Pseudomonas aeruginosa) | MIC EC (Eschericia coli)

Cl.Cl.Cl.Cl.Cl.Cl.Cl.N[C@@H](CC(=O)O)C(=O)NC[C@H]1O[C@@H]2O[C@H]3[C@H](O)[C@@H](O)[C@@H](O[C@H]4[C@H](O)[C@@H](O)[C@@H](O[C@H]5[C@H](O)[C@@H](O)[C@@H](O[C@H]6[C@H](O)[C@@H](O)[C@@H](O[C@H]7[C@H](O)[C@@H](O)[C@@H](O[C@H]8[C@H](O)[C@@H](O)[C@@H](O[C@H]1[C@H](O)[C@H]2O)O[C@@H]8CNC(=O)[C@@H](N)CC(=O)O)O[C@@H]7CNC(=O)[C@@H](N)CC(=O)O)O[C@@H]6CNC(=O)[C@@H](N)CC(=O)O)O[C@@H]5CNC(=O)[C@@H](N)CC(=O)O)O[C@@H]4CNC(=O)[C@@H](N)CC(=O)O)O[C@@H]3CNC(=O)[C@@H](N)CC(=O)O
>200 µg/mL: MIC SC (Salmonella choleraesuis) | MIC EF (Enterococcus faecium) | MIC SA (Staphylococcus aureus) | MIC BA (Bacillus atrophaeus) | MIC PA (Pseudomonas aeruginosa) | MIC EC (Eschericia coli)

Oc1ccc(NC[C@H]2O[C@@H]3O[C@H]4[C@H](O)[C@@H](O)[C@@H](O[C@H]5[C@H](O)[C@@H](O)[C@@H](O[C@H]6[C@H](O)[C@@H](O)[C@@H](O[C@H]7[C@H](O)[C@@H](O)[C@@H](O[C@H]8[C@H](O)[C@@H](O)[C@@H](O[C@H]9[C@H](O)[C@@H](O)[C@@H](O[C@H]2[C@H](O)[C@H]3O)O[C@@H]9CNc2ccc(O)cc2)O[C@@H]8CNc2ccc(O)cc2)O[C@@H]7CNc2ccc(O)cc2)O[C@@H]6CNc2ccc(O)cc2)O[C@@H]5CNc2ccc(O)cc2)O[C@@H]4CNc2ccc(O)cc2)cc1
>200 µg/mL: MIC SC (Salmonella choleraesuis) | MIC EF (Enterococcus faecium) | MIC SA (Staphylococcus aureus) | MIC BA (Bacillus atrophaeus) | MIC PA (Pseudomonas aeruginosa) | MIC EC (Eschericia coli)

OCC1OC(OCc2cn(CC3OC4OC5C(Cn6cc(COC7OC(CO)C(O)C(O)C7O)nn6)OC(OC6C(Cn7cc(COC8OC(CO)C(O)C(O)C8O)nn7)OC(OC7C(Cn8cc(COC9OC(CO)C(O)C(O)C9O)nn8)OC(OC8C(Cn9cc(COC%10OC(CO)C(O)C(O)C%10O)nn9)OC(OC9C(Cn%10cc(COC%11OC(CO)C(O)C(O)C%11O)nn%10)OC(OC%10C(Cn%11cc(COC%12OC(CO)C(O)C(O)C%12O)nn%11)OC(OC3C(O)C4O)C(O)C%10O)C(O)C9O)C(O)C8O)C(O)C7O)C(O)C6O)C(O)C5O)nn2)C(O)C(O)C1O (stereo not drawn)
>200 µg/mL: MIC SC (Salmonella choleraesuis) | MIC EF (Enterococcus faecium) | MIC SA (Staphylococcus aureus) | MIC BA (Bacillus atrophaeus) | MIC PA (Pseudomonas aeruginosa) | MIC EC (Eschericia coli)

O=C(Cn1ccnc1)NCC1OC2OC3C(CNC(=O)Cn4ccnc4)OC(OC4C(CNC(=O)Cn5ccnc5)OC(OC5C(CNC(=O)Cn6ccnc6)OC(OC6C(CNC(=O)Cn7ccnc7)OC(OC7C(CNC(=O)Cn8ccnc8)OC(OC8C(CNC(=O)Cn9ccnc9)OC(OC1C(O)C2O)C(O)C8O)C(O)C7O)C(O)C6O)C(O)C5O)C(O)C4O)C(O)C3O (stereo not drawn)
>200 µg/mL: MIC SC (Salmonella choleraesuis) | MIC EF (Enterococcus faecium) | MIC SA (Staphylococcus aureus) | MIC BA (Bacillus atrophaeus) | MIC PA (Pseudomonas aeruginosa) | MIC EC (Eschericia coli)

COCCNCC1OC2OC3C(CNCCOC)OC(OC4C(CNCCOC)OC(OC5C(CNCCOC)OC(OC6C(CNCCOC)OC(OC7C(CNCCOC)OC(OC8C(CNCCOC)OC(OC1C(O)C2O)C(O)C8O)C(O)C7O)C(O)C6O)C(O)C5O)C(O)C4O)C(O)C3O (stereo not drawn)
>200 µg/mL: MIC SC (Salmonella choleraesuis) | MIC EF (Enterococcus faecium) | MIC SA (Staphylococcus aureus) | MIC BA (Bacillus atrophaeus) | MIC PA (Pseudomonas aeruginosa) | MIC EC (Eschericia coli)

Cl.Cl.Cl.Cl.Cl.Cl.Cl.O=C(NCC1OC2OC3C(CNC(=O)C4CC(O)CN4)OC(OC4C(CNC(=O)C5CC(O)CN5)OC(OC5C(CNC(=O)C6CC(O)CN6)OC(OC6C(CNC(=O)C7CC(O)CN7)OC(OC7C(CNC(=O)C8CC(O)CN8)OC(OC8C(CNC(=O)C9CC(O)CN9)OC(OC1C(O)C2O)C(O)C8O)C(O)C7O)C(O)C6O)C(O)C5O)C(O)C4O)C(O)C3O)C1CC(O)CN1 (stereo not drawn)
>200 µg/mL: MIC SC (Salmonella choleraesuis) | MIC EF (Enterococcus faecium) | MIC SA (Staphylococcus aureus) | MIC BA (Bacillus atrophaeus) | MIC PA (Pseudomonas aeruginosa) | MIC EC (Eschericia coli)

Cl.Cl.Cl.Cl.Cl.Cl.Cl.NCCCC(=O)NC[C@H]1O[C@@H]2O[C@H]3[C@H](O)[C@@H](O)[C@@H](O[C@H]4[C@H](O)[C@@H](O)[C@@H](O[C@H]5[C@H](O)[C@@H](O)[C@@H](O[C@H]6[C@H](O)[C@@H](O)[C@@H](O[C@H]7[C@H](O)[C@@H](O)[C@@H](O[C@H]8[C@H](O)[C@@H](O)[C@@H](O[C@H]1[C@H](O)[C@H]2O)O[C@@H]8CNC(=O)CCCN)O[C@@H]7CNC(=O)CCCN)O[C@@H]6CNC(=O)CCCN)O[C@@H]5CNC(=O)CCCN)O[C@@H]4CNC(=O)CCCN)O[C@@H]3CNC(=O)CCCN
>200 µg/mL: MIC SC (Salmonella choleraesuis) | MIC EF (Enterococcus faecium) | MIC SA (Staphylococcus aureus) | MIC BA (Bacillus atrophaeus) | MIC PA (Pseudomonas aeruginosa) | MIC EC (Eschericia coli)

OC1C2OC(CNc3ccccc3)C(OC3OC(CNc4ccccc4)C(OC4OC(CNc5ccccc5)C(OC5OC(CNc6ccccc6)C(OC6OC(CNc7ccccc7)C(OC7OC(CNc8ccccc8)C(OC8OC(CNc9ccccc9)C(O2)C(O)C8O)C(O)C7O)C(O)C6O)C(O)C5O)C(O)C4O)C(O)C3O)C1O (stereo not drawn)
>200 µg/mL: MIC SC (Salmonella choleraesuis) | MIC EF (Enterococcus faecium) | MIC SA (Staphylococcus aureus) | MIC BA (Bacillus atrophaeus) | MIC PA (Pseudomonas aeruginosa) | MIC EC (Eschericia coli)
